This note sets out measurements from PubChem BioAssay AID220 (DTP/NCI, 2004).

Several values for one entry are separate records, joined by “and”; a condition that tells them apart may be missing. Equal values may be shown once. Records with an inconclusive call do not appear.

This test concerns CD8F1 mice, subcutaneous mammary adenocarcinoma, T/C%. Put plainly: NCI In Vivo Anticancer Drug Screen. Data for tumor model Mammary Adenocarcinoma CD8F1 (subcutaneous) in CD8F1. Particulars: higher = larger tumour. The procedure, abridged:
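Ratio of treated to vehicle-control outcome, based on either survival or tumor size, in mice bearing transplantable tumors given the test compound.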

Setting [1] is: endpoint: median tumor weight (est.), dose: 12.5 mg/kg/injection, schedule: Q07DX005 (ip), vehicle: Klucel (hydroxypropylcellulose) (HPC).
The mark [2] stands for this setting: endpoint: median tumor weight (est.), dose: 25.0 mg/kg/injection, schedule: Q07DX005 (ip), vehicle: Klucel (hydroxypropylcellulose) (HPC).
Setting [3] is: endpoint: median tumor weight (est.), dose: 50.0 mg/kg/injection, schedule: Q07DX005 (ip), vehicle: Klucel (hydroxypropylcellulose) (HPC).
Where [4] appears, read: endpoint: median tumor weight (est.), dose: 100.0 mg/kg/injection, schedule: Q07DX005 (ip), vehicle: Klucel (hydroxypropylcellulose) (HPC).
Where [5] appears, read: endpoint: median tumor weight change, dose: 50.0 mg/kg/injection, schedule: Q01DX001 (ip), vehicle: suspension in saline.

For the compound `CC1=C(O)C(=O)[C@@H]2O[C@@H]2C1=O`, the T/C reads like this: (endpoint: median tumor weight change, dose: 7.8 mg/kg/injection, schedule: Q01DX001 (ip), vehicle: saline) 54 % of control; (endpoint: median tumor weight change, dose: 15.6 mg/kg/injection, schedule: Q01DX001 (ip), vehicle: saline) 81 % of control; (endpoint: median tumor weight change, dose: 31.25 mg/kg/injection, schedule: Q01DX001 (ip), vehicle: saline) 48 % of control.
As to `CC(=O)OC1=NC(C)c2c1cc(OC(C)=O)[nH]c2=O` (centres undefined), the T/C is 86 % of control under setting [1], 168 % of control under setting [2] and 111 % of control under setting [3].
Regarding `CN(C(=S)S(=O)(=O)C12CC3CC(CC(C3)C1)C2)c1ccccc1`, the T/C by setting is: (endpoint: median tumor weight (est.), dose: 6.25 mg/kg/injection, schedule: Q07DX005 (ip), vehicle: Klucel (hydroxypropylcellulose) (HPC)) 66 % of control; under setting [1], 84 % of control; under setting [2], 81 % of control; under setting [3], 77 % of control; under setting [4], 61 % of control.
As for `CC(=O)Nc1ccc(Nc2ccc(C(=C3C=CC(=[N+](C)CCC#N)C=C3)c3ccc(N(C)CCC#N)cc3)cc2)cc1`, the T/C (endpoint: median tumor weight change, dose: 125.0 mg/kg/injection, schedule: Q01DX001 (ip), vehicle: saline with Tween-80) was 67 % of control.
With `Clc1ccc(C(c2ccc(Cl)cc2)C(Cl)(Cl)Cl)cc1`, the T/C is 106 % of control (endpoint: median tumor weight change, dose: 31.25 mg/kg/injection, schedule: Q01DX001 (ip), vehicle: Klucel (hydroxypropylcellulose) (HPC)); 84 % of control (endpoint: median tumor weight change, dose: 62.5 mg/kg/injection, schedule: Q01DX001 (ip), vehicle: Klucel (hydroxypropylcellulose) (HPC)); 123 % of control (endpoint: median tumor weight change, dose: 125.0 mg/kg/injection, schedule: Q01DX001 (ip), vehicle: Klucel (hydroxypropylcellulose) (HPC)); 80 % of control (endpoint: median tumor weight change, dose: 250.0 mg/kg/injection, schedule: Q01DX001 (ip), vehicle: Klucel (hydroxypropylcellulose) (HPC)); 59 % of control (endpoint: median tumor weight change, dose: 500.0 mg/kg/injection, schedule: Q01DX001 (ip), vehicle: Klucel (hydroxypropylcellulose) (HPC)).
Take `Nc1nc2ccc(NCc3ccc(C(=O)NC(CCC(=O)O)C(=O)O)cc3)cc2c(=O)[nH]1` (centres undefined): the T/C is 115 % of control (endpoint: median tumor weight change, dose: 25.0 mg/kg/injection, schedule: Q01DX001 (ip), vehicle: saline with Tween-80) and 68 % of control (endpoint: median tumor weight change, dose: 100.0 mg/kg/injection, schedule: Q01DX001 (ip), vehicle: saline with Tween-80).
For `CCc1ncnc2cc(OCC3CO3)c(OC)cc12` (centres undefined), the T/C (endpoint: median tumor weight change, dose: 25.0 mg/kg/injection, schedule: Q01DX001 (ip), vehicle: suspension in saline) is 118 % of control; the T/C under setting [5] is 110 % of control; the T/C (endpoint: median tumor weight change, dose: 100.0 mg/kg/injection, schedule: Q01DX001 (ip), vehicle: suspension in saline) is 35 % of control; the T/C (endpoint: median tumor weight change, dose: 400.0 mg/kg/injection, schedule: Q01DX001 (ip), vehicle: suspension in saline) was 93 % of control.
For `CCCCCC[C@H]([C@H](C)O)n1cnc2c(N)ncnc21`, the T/C under setting [1] was 60 % of control; the T/C under setting [2] is 305 % of control; the T/C under setting [3] was 206 % of control and 84 % of control; the T/C under setting [4] was 106 % of control; the T/C (endpoint: median tumor weight change, dose: 50.0 mg/kg/injection, schedule: Q01DX001 (ip), vehicle: Klucel (hydroxypropylcellulose) (HPC)) was 68 % of control; the T/C (endpoint: median tumor weight change, dose: 100.0 mg/kg/injection, schedule: Q01DX001 (ip), vehicle: Klucel (hydroxypropylcellulose) (HPC)) is 106 % of control. Also, the T/C (endpoint: median tumor weight change, dose: 200.0 mg/kg/injection, schedule: Q01DX001 (ip), vehicle: Klucel (hydroxypropylcellulose) (HPC)) was 79 % of control.
In the case of `Cc1cc(=NO)cc(C)n1O`, the T/C was 52 % of control and 77 % of control (endpoint: median tumor weight change, dose: 125.0 mg/kg/injection, schedule: Q01DX001 (ip), vehicle: distilled water + alcohol); 78 % of control and 80 % of control (endpoint: median tumor weight change, dose: 250.0 mg/kg/injection, schedule: Q01DX001 (ip), vehicle: distilled water + alcohol); 69 % of control and 78 % of control (endpoint: median tumor weight change, dose: 500.0 mg/kg/injection, schedule: Q01DX001 (ip), vehicle: distilled water + alcohol).
As to `CC(=O)NCCCCCCNC(C)=O`, the T/C runs as follows: (endpoint: median tumor weight change, dose: 125.0 mg/kg/injection, schedule: Q01DX001 (ip), vehicle: saline) 58 % of control; (endpoint: median tumor weight change, dose: 500.0 mg/kg/injection, schedule: Q01DX001 (ip), vehicle: saline) 67 % of control; (endpoint: median tumor weight change, dose: 1000.0 mg/kg/injection, schedule: Q01DX001 (ip), vehicle: saline) 52 % of control and 72 % of control; (endpoint: median tumor weight change, dose: 4000.0 mg/kg/injection, schedule: Q01DX001 (ip), vehicle: saline) 39 % of control.
For `CC(=O)OCC1OC([S-])C(OC(C)=O)C(OC(C)=O)C1OC(C)=O.CC[PH+](CC)CC.CC[PH+](CC)CC.[Au].[Au]` (centres undefined), the T/C is, setting by setting: (endpoint: median tumor weight change, dose: 6.25 mg/kg/injection, schedule: Q01DX001 (ip), vehicle: Klucel (hydroxypropylcellulose) (HPC)) 63 % of control; (endpoint: median tumor weight change, dose: 12.5 mg/kg/injection, schedule: Q01DX001 (ip), vehicle: Klucel (hydroxypropylcellulose) (HPC)) 109 % of control.
`CCCCCCCCCCCCCCCCS(=O)CC(O)COC(=O)c1ccc(C(=O)OCC(O)CS(=O)CCCCCCCCCCCCCCCC)cc1` (centres undefined): the T/C reads like this: (endpoint: median tumor weight (est.), dose: 12.5 mg/kg/injection, schedule: Q07DX005 (ip), vehicle: saline + Tween-80 + alcohol) 68 % of control and 88 % of control; (endpoint: median tumor weight (est.), dose: 25.0 mg/kg/injection, schedule: Q07DX005 (ip), vehicle: saline + Tween-80 + alcohol) 69 % of control and 79 % of control; (endpoint: median tumor weight (est.), dose: 200.0 mg/kg/injection, schedule: Q07DX005 (ip), vehicle: saline + Tween-80 + alcohol) 48 % of control and 64 % of control; (endpoint: median tumor weight (est.), dose: 400.0 mg/kg/injection, schedule: Q07DX005 (ip), vehicle: saline + Tween-80 + alcohol) 78 % of control and 84 % of control.
Take `Cc1cnc(/C=N\NC(N)=S)c2cccc(N)c12`: the T/C is 93 % of control (endpoint: median tumor weight (est.), dose: 3.12 mg/kg/injection, schedule: Q07DX005 (ip), vehicle: saline with Tween-80); 83 % of control and 94 % of control (endpoint: median tumor weight (est.), dose: 12.5 mg/kg/injection, schedule: Q07DX005 (ip), vehicle: saline with Tween-80); 54 % of control and 71 % of control (endpoint: median tumor weight (est.), dose: 25.0 mg/kg/injection, schedule: Q07DX005 (ip), vehicle: saline with Tween-80); 46 % of control and 62 % of control (endpoint: median tumor weight (est.), dose: 50.0 mg/kg/injection, schedule: Q07DX005 (ip), vehicle: saline with Tween-80); 55 % of control and 66 % of control (endpoint: median tumor weight (est.), dose: 100.0 mg/kg/injection, schedule: Q07DX005 (ip), vehicle: saline with Tween-80).
In the case of `NC(=S)c1cn(C2OC(CO)C(O)C2O)c2ncnc(N)c12` (centres undefined), the T/C reads like this: (endpoint: median tumor weight change, dose: 3.12 mg/kg/injection, schedule: Q01DX001 (ip), vehicle: suspension in saline) 96 % of control; (endpoint: median tumor weight change, dose: 6.25 mg/kg/injection, schedule: Q01DX001 (ip), vehicle: suspension in saline) 68 % of control; (endpoint: median tumor weight change, dose: 12.5 mg/kg/injection, schedule: Q01DX001 (ip), vehicle: suspension in saline) 76 % of control.
As for `O=C1NC2(CCCCC2)C(=O)N1CCN(CCCl)CCCl`, the T/C was 81 % of control (endpoint: mean tumor weight, dose: 3.0 mg/kg/injection, schedule: Q07DX005 (ip), vehicle: Klucel (hydroxypropylcellulose) (HPC)); 82 % of control (endpoint: mean tumor weight, dose: 6.0 mg/kg/injection, schedule: Q07DX005 (ip), vehicle: Klucel (hydroxypropylcellulose) (HPC)); 42 % of control (endpoint: mean tumor weight, dose: 12.0 mg/kg/injection, schedule: Q07DX005 (ip), vehicle: Klucel (hydroxypropylcellulose) (HPC)); 26 % of control (endpoint: mean tumor weight, dose: 24.0 mg/kg/injection, schedule: Q07DX005 (ip), vehicle: Klucel (hydroxypropylcellulose) (HPC)); 68 % of control (endpoint: median tumor weight (est.), dose: 3.0 mg/kg/injection, schedule: Q07DX005 (ip), vehicle: saline); 75 % of control (endpoint: median tumor weight (est.), dose: 6.0 mg/kg/injection, schedule: Q07DX005 (ip), vehicle: saline). Besides, the T/C is 45 % of control (endpoint: median tumor weight (est.), dose: 12.0 mg/kg/injection, schedule: Q07DX005 (ip), vehicle: saline); 6 % of control (endpoint: median tumor weight (est.), dose: 24.0 mg/kg/injection, schedule: Q07DX005 (ip), vehicle: saline); 60 % of control (endpoint: median tumor weight change, dose: 9.0 mg/kg/injection, schedule: Q01DX001 (ip), vehicle: saline with Tween-80); 75 % of control (endpoint: median tumor weight change, dose: 9.38 mg/kg/injection, schedule: Q01DX001 (ip), vehicle: saline with Tween-80); 62 % of control (endpoint: median tumor weight change, dose: 18.0 mg/kg/injection, schedule: Q01DX001 (ip), vehicle: saline with Tween-80); 32 % of control (endpoint: median tumor weight change, dose: 37.0 mg/kg/injection, schedule: Q01DX001 (ip), vehicle: saline with Tween-80). In addition, the T/C (endpoint: median tumor weight change, dose: 75.0 mg/kg/injection, schedule: Q01DX001 (ip), vehicle: saline with Tween-80) was 19 % of control.
As for `O=P(O)(NCCCl)NCCCl`, the T/C is, setting by setting: (endpoint: median tumor weight change, dose: 25.0 mg/kg/injection, schedule: Q01DX001 (ip), vehicle: saline) 49 % of control; (endpoint: median tumor weight change, dose: 50.0 mg/kg/injection, schedule: Q01DX001 (ip), vehicle: saline) 97 % of control; under setting [5], -39 % of control; (endpoint: median tumor weight change, dose: 100.0 mg/kg/injection, schedule: Q01DX001 (ip), vehicle: saline) 41 % of control; (endpoint: median tumor weight change, dose: 200.0 mg/kg/injection, schedule: Q01DX001 (ip), vehicle: saline) -56 % of control.
